Measured values taken from patent US20260315487A1, “IKK-ALPHA INHIBITORS” (Cancer Research Technology Limited, priority 2023, published 2026).

Target: T1, IKKα (Homo sapiens, UniProt O15111)
T1 sequence (O15111 1-745): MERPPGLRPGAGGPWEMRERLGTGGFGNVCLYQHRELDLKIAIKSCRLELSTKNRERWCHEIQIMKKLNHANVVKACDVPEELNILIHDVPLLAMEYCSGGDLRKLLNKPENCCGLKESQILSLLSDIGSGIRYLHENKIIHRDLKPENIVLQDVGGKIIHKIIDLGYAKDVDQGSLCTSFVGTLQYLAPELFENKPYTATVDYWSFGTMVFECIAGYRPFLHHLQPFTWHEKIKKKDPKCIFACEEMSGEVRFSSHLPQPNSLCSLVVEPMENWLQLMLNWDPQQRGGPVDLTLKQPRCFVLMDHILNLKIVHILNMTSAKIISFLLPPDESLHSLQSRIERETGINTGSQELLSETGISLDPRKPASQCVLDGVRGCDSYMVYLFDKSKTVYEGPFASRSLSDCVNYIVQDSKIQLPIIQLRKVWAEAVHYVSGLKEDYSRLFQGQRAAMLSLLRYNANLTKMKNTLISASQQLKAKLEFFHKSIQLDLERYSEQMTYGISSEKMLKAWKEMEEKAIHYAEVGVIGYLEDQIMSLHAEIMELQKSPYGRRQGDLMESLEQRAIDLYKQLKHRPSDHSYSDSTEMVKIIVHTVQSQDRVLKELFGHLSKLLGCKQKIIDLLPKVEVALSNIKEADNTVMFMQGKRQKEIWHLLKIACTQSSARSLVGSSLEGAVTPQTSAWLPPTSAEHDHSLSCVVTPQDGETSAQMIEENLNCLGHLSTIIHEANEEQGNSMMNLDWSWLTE
Assay: activity and selectivity in cells
Type: cell-based

In the case of `Nc1n[nH]c2ccc(-c3ccnc4[nH]c(-c5cccc(OCc6ccccc6)c5)cc34)cc12` [5r SU1261, 5-(2-(3-(benzyloxy)phenyl)-1 H-pyrrolo[2,3-b]pyridin-4-yl)-1 H-indazol-3-amine], the “activity and selectivity in cells, in words” value is reported as “activity and selectivity being recapitulated in cells”.
